Results as given in PMC10648852, “Molecular drivers of resistance to sulbactam-durlobactam in contemporary clinical isolates of Acinetobacter baumannii” (Antimicrobial Agents and Chemotherapy, 2023).
Read-outs that look alike come from different tables or passages of the source.

Assays:
[1] = test system: A. baumannii wild-type PBP3; assay: Acylation rate constant (kinact/Ki), fluorescence anisotropy competition with BOCILLIN; details: Wildtype PBP3
[2] = test system: A. pittii clinical isolates; assay: microbe, parasite or virus in culture; type: cell-based; details: Acinetobacter pittii
In short: (§1)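 SUL-DUR combines serially twofold-diluted sulbactam with durlobactam held at 4 µg/mL; MICs obtained by CLSI-standard broth microdilution and read against CLSI breakpoints when these exist.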

[3] = test system: A. nosocomialis clinical isolate; assay: microbe, parasite or virus in culture; type: cell-based; details: Acinetobacter nosocomialis, isolate ARC7023 (IHMA 2118812), France, BSI, 2019, read-out: MIC
In short: as §1

[4] = test system: A. baumannii clinical isolates; assay: microbe, parasite or virus in culture; type: cell-based; details: Acinetobacter baumannii
In short: as §1

[5] = test system: ABC clinical isolates with SUL-DUR MIC > 4 µg/mL; assay: microbe, parasite or virus in culture; type: cell-based, Acinetobacter baumannii-calcoaceticus complex
In short: as §1

C[C@@H](O)[C@H]1C(=O)N2C(C(=O)O)=C(S[C@@H]3CN[C@H](C(=O)N(C)C)C3)[C@H](C)[C@H]12 [meropenem]
% WT [1]: 100%
k inact/K i ([1]; average ± SD): 5,000 ± 1,000 ([10]) M^-1s^-1
MIC ([2]; isolate ARC6949 (IHMA 1898982), Romania, RTI, 2018, read-out: MIC): > 64 µg/mL
MIC ([2]; isolate ARC6951 (IHMA 1776233), Philippines, RTI, 2018, read-out: MIC): > 64 µg/mL
MIC ([2]; isolate ARC6952 (IHMA 1899008), Romania, RTI, 2018, read-out: MIC): > 64 µg/mL
MIC ([2]; isolate ARC7087 (IHMA 2212062), Colombia, BSI, 2020, read-out: MIC): > 64 µg/mL
MIC [3]: > 64 µg/mL
MIC ([4]; isolate ARC6644 (IHMA 1420327), Mexico, UTI, 2016, read-out: MIC): 64 µg/mL
MIC ([4]; isolate ARC6645 (IHMA 1435703), France, UTI, 2016, read-out: MIC): > 64 µg/mL
MIC ([4]; isolate ARC6646 (IHMA 1484127), United States, RTI, 2016, read-out: MIC): 64 µg/mL
MIC ([4]; isolate ARC6647 (IHMA 1386786), Argentina, RTI, 2016, read-out: MIC): > 64 µg/mL
MIC ([4]; isolate ARC6648 (IHMA 1407634), Spain, RTI, 2016, read-out: MIC): > 64 µg/mL
MIC ([4]; isolate ARC6650 (IHMA 1457337), Argentina, RTI, 2016, read-out: MIC): 64 µg/mL
MIC ([4]; isolate ARC6652 (IHMA 1465642), Belgium, RTI, 2016, read-out: MIC): > 64 µg/mL
MIC ([4]; isolate ARC6653 (IHMA 1308777), Vietnam, RTI, 2016, read-out: MIC): > 64 µg/mL
MIC ([4]; isolate ARC6799 (IHMA 1562935), Spain, UTI, 2017, read-out: MIC): 64 µg/mL
MIC ([4]; isolate ARC6800 (IHMA 1557526), Turkey, RTI, 2017, read-out: MIC): 64 µg/mL
MIC ([4]; isolate ARC6801 (IHMA 1662094), Thailand, RTI, 2017, read-out: MIC): > 64 µg/mL
MIC ([4]; isolate ARC6802 (IHMA 1557073), Spain, UTI, 2017, read-out: MIC): 64 µg/mL
MIC ([4]; isolate ARC6803 (IHMA 1589408), Belgium, UTI, 2017, read-out: MIC): > 64 µg/mL
MIC ([4]; isolate ARC6805 (IHMA 1558650), United States, RTI, 2017, read-out: MIC): 64 µg/mL
MIC ([4]; isolate ARC6808 (IHMA 1557168), Spain, RTI, 2017, read-out: MIC): 64 µg/mL
MIC ([4]; isolate ARC6809 (IHMA 1699528), Guatemala, RTI, 2017, read-out: MIC): > 64 µg/mL
MIC ([4]; isolate ARC6810 (IHMA 1699548), Guatemala, RTI, 2017, read-out: MIC): > 64 µg/mL
MIC ([4]; isolate ARC6812 (IHMA 1699530), Guatemala, RTI, 2017, read-out: MIC): > 64 µg/mL
MIC ([4]; isolate ARC6813 (IHMA 1699543), Guatemala, UTI, 2017, read-out: MIC): > 64 µg/mL
MIC ([4]; isolate ARC6814 (IHMA 1699512), Guatemala, RTI, 2017, read-out: MIC): > 64 µg/mL
MIC ([4]; isolate ARC6815 (IHMA 1699513), Guatemala, RTI, 2017, read-out: MIC): > 64 µg/mL
MIC ([4]; isolate ARC6816 (IHMA 1699521), Guatemala, RTI, 2017, read-out: MIC): > 64 µg/mL
MIC ([4]; isolate ARC6817 (IHMA 1699523), Guatemala, RTI, 2017, read-out: MIC): > 64 µg/mL
MIC ([4]; isolate ARC6818 (IHMA 1683261), Thailand, RTI, 2017, read-out: MIC): > 64 µg/mL
MIC ([4]; isolate ARC6819 (IHMA 1683267), Thailand, RTI, 2017, read-out: MIC): > 64 µg/mL
MIC ([4]; isolate ARC6820 (IHMA 1647876), Argentina, RTI, 2017, read-out: MIC): 64 µg/mL
MIC ([4]; isolate ARC6821 (IHMA 1699517), Guatemala, RTI, 2017, read-out: MIC): > 64 µg/mL
MIC ([4]; isolate ARC6822 (IHMA 1637626), Guatemala, RTI, 2017, read-out: MIC): > 64 µg/mL
MIC ([4]; isolate ARC6823 (IHMA 1620872), Greece, SSSI, 2017, read-out: MIC): > 64 µg/mL
MIC ([4]; isolate ARC6824 (IHMA 1625487), Argentina, BSI, 2017, read-out: MIC): > 64 µg/mL
MIC ([4]; isolate ARC6937 (IHMA 1562926), Spain, UTI, 2017, read-out: MIC): 64 µg/mL
MIC ([4]; isolate ARC6950 (IHMA 1820064), Israel, RTI, 2018, read-out: MIC): > 64 µg/mL
MIC ([4]; isolate ARC6953 (IHMA 1909827), Turkey, IAI, 2018, read-out: MIC): > 64 µg/mL
MIC ([4]; isolate ARC6954 (IHMA 1838192), Guatemala, SSSI, 2018, read-out: MIC): > 64 µg/mL
MIC ([4]; isolate ARC6955 (IHMA 1825425), United States, RTI, 2018, read-out: MIC): 64 µg/mL
MIC ([4]; isolate ARC7008 (IHMA 2009813), Thailand, BSI, 2019, read-out: MIC): > 64 µg/mL
MIC ([4]; isolate ARC7009 (IHMA 2043611), United States, UTI, 2019, read-out: MIC): > 64 µg/mL
MIC ([4]; isolate ARC7010 (IHMA 2043398), United States, RTI, 2019, read-out: MIC): > 64 µg/mL
MIC ([4]; isolate ARC7011 (IHMA 2104553), Germany, RTI, 2019, read-out: MIC): > 64 µg/mL
MIC ([4]; isolate ARC7012 (IHMA 2010001), Thailand, RTI, 2019, read-out: MIC): > 64 µg/mL
MIC ([4]; isolate ARC7013 (IHMA 1962831), Argentina, RTI, 2019, read-out: MIC): > 64 µg/mL
MIC ([4]; isolate ARC7014 (IHMA 2045328), Guatemala, IAI, 2019, read-out: MIC): > 64 µg/mL
MIC ([4]; isolate ARC7015 (IHMA 2045327), Guatemala, UTI, 2019, read-out: MIC): > 64 µg/mL
MIC ([4]; isolate ARC7016 (IHMA 2148441), Brazil, BSI, 2019, read-out: MIC): > 64 µg/mL
MIC ([4]; isolate ARC7017 (IHMA 2148446), Brazil, BSI, 2019, read-out: MIC): > 64 µg/mL
MIC ([4]; isolate ARC7018 (IHMA 2045454), Guatemala, IAI, 2019, read-out: MIC): > 64 µg/mL
MIC ([4]; isolate ARC7019 (IHMA 2114463), Thailand, RTI, 2019, read-out: MIC): > 64 µg/mL
MIC ([4]; isolate ARC7020 (IHMA 2045326), Guatemala, RTI, 2019, read-out: MIC): > 64 µg/mL
MIC ([4]; isolate ARC7021 (IHMA 1966347), Guatemala, RTI, 2019, read-out: MIC): > 64 µg/mL
MIC ([4]; isolate ARC7022 (IHMA 2045319), Guatemala, IAI, 2019, read-out: MIC): > 64 µg/mL
MIC ([4]; isolate ARC7024 (IHMA 2059448), Turkey, RTI, 2019, read-out: MIC): > 64 µg/mL
MIC ([4]; isolate ARC7025 (IHMA 2002121), Spain, RTI, 2019, read-out: MIC): 64 µg/mL
MIC ([4]; isolate ARC7026 (IHMA 2104494), Guatemala, BSI, 2019, read-out: MIC): > 64 µg/mL
MIC ([4]; isolate ARC7082 (IHMA 2160640), Belgium, BSI, 2020, read-out: MIC): > 64 µg/mL
MIC ([4]; isolate ARC7083 (IHMA 2163687), United States, RTI, 2020, read-out: MIC): 64 µg/mL
MIC ([4]; isolate ARC7084 (IHMA 2189596), Germany, RTI, 2020, read-out: MIC): > 64 µg/mL
MIC ([4]; isolate ARC7085 (IHMA 2205747), Guatemala, IAI, 2020, read-out: MIC): > 64 µg/mL
MIC ([4]; isolate ARC7086 (IHMA 2207563), Israel, RTI, 2020, read-out: MIC): 32 µg/mL
MIC ([4]; isolate ARC7088 (IHMA 2215554), Turkey, BSI, 2020, read-out: MIC): > 64 µg/mL
MIC ([4]; isolate ARC7089 (IHMA 2240345), Argentina, BSI, 2020, read-out: MIC): 64 µg/mL
MIC ([4]; isolate ARC7090 (IHMA 2244410), Poland, RTI, 2020, read-out: MIC): > 64 µg/mL
MIC ([4]; isolate ARC7091 (IHMA 2244564), Australia, RTI, 2020, read-out: MIC): > 64 µg/mL
MIC ([4]; isolate ARC7092 (IHMA 2258772), United States, BSI, 2020, read-out: MIC): > 64 µg/mL
MIC ([4]; isolate ARC7093 (IHMA 2258783), United States, RTI, 2020, read-out: MIC): > 64 µg/mL
MIC ([4]; isolate ARC7094 (IHMA 2296423), Turkey, RTI, 2020, read-out: MIC): 64 µg/mL
MIC ([4]; isolate ARC7095 (IHMA 2320843), Turkey, BSI, 2020, read-out: MIC): 32 µg/mL
MIC ([4]; isolate ARC7156 (IHMA 2455450), Greece, RTI, 2021, read-out: MIC): > 64 µg/mL
MIC ([4]; isolate ARC7158 (IHMA 2523738), Italy, BSI, 2021, read-out: MIC): > 64 µg/mL
MIC ([4]; isolate ARC7159 (IHMA 2456229), Malaysia, RTI, 2021, read-out: MIC): > 64 µg/mL
MIC ([4]; isolate ARC7160 (IHMA 2458626), Thailand, RTI, 2021, read-out: MIC): > 64 µg/mL
MIC ([4]; isolate ARC7161 (IHMA 2429252), Ukraine, RTI, 2021, read-out: MIC): 64 µg/mL
MIC ([4]; isolate ARC7162 (IHMA 2411847), United States, BSI, 2021, read-out: MIC): > 64 µg/mL
MIC ([4]; isolate ARC7163 (IHMA 2477704), United States, BSI, 2021, read-out: MIC): > 64 µg/mL
%NS (% non-susceptibility) ([5]; 64 non-clonal ABC isolates, 2023 CLSI breakpoints plus FDA breakpoint of 4 µg/mL for SUL-DUR): 100%
MIC50 ([5]; Acinetobacter): > 64 µg/mL
MIC90 ([5]; Acinetobacter): > 64 µg/mL
MIC ([5]; Acinetobacter, read-out: MIC Max): > 64 µg/mL
MIC ([5]; Acinetobacter, read-out: MIC Min): 32 µg/mL
